Biological target: T1, GlcAT-I (GST-GlcAT-I) (Homo sapiens, UniProt O94766)
T1 construct: gene B3GAT3; truncated GlcAT-I, GST fusion, E. coli, purified
T1 sequence (O94766 29-335 limits assumed): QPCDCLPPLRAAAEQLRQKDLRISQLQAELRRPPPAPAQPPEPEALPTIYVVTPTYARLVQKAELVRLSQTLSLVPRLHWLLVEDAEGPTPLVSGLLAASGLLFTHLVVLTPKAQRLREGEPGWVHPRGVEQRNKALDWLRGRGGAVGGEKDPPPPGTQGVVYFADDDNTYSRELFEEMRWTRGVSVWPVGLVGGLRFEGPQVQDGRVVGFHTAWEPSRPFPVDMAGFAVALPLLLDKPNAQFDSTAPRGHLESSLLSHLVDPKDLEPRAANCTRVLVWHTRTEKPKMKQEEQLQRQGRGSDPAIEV
Assay: UDP-Glo glycosyltransferase assay
Type: biochemical
Settings: acceptor; 5 mM UDP-GlcA, 100 mM sodium acetate pH 6.5, 10 mM MnCl2, 37 °C, 60 min

**Q.** How did the UDP-Glo glycosyltransferase assay turn out when `COc1ccc2ccc(O[C@@H]3OC[C@@H](O[C@@H]4O[C@H](CO)[C@H](O)[C@H](O[C@@H]5O[C@H](CO)[C@H](O)[C@H](O)[C@H]5O)[C@H]4O)[C@H](O)[C@H]3O)cc2c1` [Gal-Gal-Xyl-OMN] was run?
**A.** The UDP-Glo glycosyltransferase assay was “GlcAT-I was highly active towards the trisaccharide Gal-Gal-Xyl-OMN”.

Reference: paper PMC12406734, “B3GALT6 mutations lead to compromised connective tissue biomechanics in Ehlers-Danlos syndrome” (JCI Insight, 2025)
